The test system of assay [1] is human lung squamous cell carcinoma cells SK-MES-1. Put plainly: In vitro efficacy (Alamar Blue or MTS, 5 days) in SK-MES-1. The assay is classed as cell-based. The note with it: 120 h, SK-MES-1, 5 days. On the procedure:
(§1) The in vitro efficacy of ADC-coupled drugs was evaluated using an experimental model of two human tumor cell lines (human poorly differentiated lung cancer squamous cell carcinoma cell line Oka-c-1, human lung squamous cell carcinoma cells SK-MES-1).
(§2) Inoculate a certain number of tumor cells in a 96-well plate, add the gradient-diluted test antibody and the corresponding ADC drug to the cells, treat for 5 days, measure the cell viability using Alamar Blue or MTS, and evaluate the inhibitory effect of the test antibody, the ADC and the small molecule drug d3 on the tumor cell lines by calculating the IC50. The starting concentration of the antibody drug was 500 nM, and the dilution was 7-fold, totaling 7 concentration points, and the treatment was carried out for 5 days.

For assay [2], the system named is human poorly differentiated lung cancer squamous cell carcinoma cell line Oka-c-1. Put plainly: In vitro efficacy (Alamar Blue or MTS, 5 days) in Oka-c-1. It is filed as cell-based. The following applies: 120 h, Oka-c-1, 5 days. As to the method: as §1, §2
For orientation: The colour change of resazurin is a common sign of viable cells or microbes.

Molecules are shown by their SMILES.

For `CC[C@@]1(O)C(=O)OCc2c1cc1n(c2=O)Cc2c-1nc1cc(F)c(C)c3c1c2[C@@H](NC(=O)[C@H](C)O)CC3` [d3], the IC50 (commonly the point on the concentration scale where inhibition reaches its midpoint) in assay [1] is 2.04 nM; in assay [2], 0.846 nM.

These data come from patent publication US12577325B2, “Bispecific antibody-camptothecin drug conjugate and pharmaceutical use thereof” (SYSTIMMUNE, INC., priority 2021, dated 2026).
